Experimental findings from US7705189B2, “Calixarene compound, process for producing the same, intermediate therefor, and composition thereof” (JSR Corporation, priority 2004, dated 2010) are described below.

The nature of data set [1]: Thermal characteristics by TG/DTA. In kind it is physicochemical. Conditions: nitrogen atmosphere, temperature rise 10° C./min. From the text: TG/DTA and DSC were used for the determination of the decomposition initiation temperature, 5% mass reduction temperature, and glass transition temperature of the derivatives shown in Table 3. The glass transition temperature could not be determined in any of the compounds. All compounds were confirmed to have high heat resistance. Comparison of T3 with T3-7 in which vinyl ether was deprotected and a spacer was introduced confirmed that there were almost no changes in the decomposition initiation temperature and 5% mass reduction temperature caused by introduction of the spacer. The lower decomposition initiation temperatures of these compounds as compared with other derivatives are due to their slight acidity resulting from the hydroxyl groups. […] T3-2a decomposed in two stages, that is, first the decomposition of phthalic acid ester bond and second the decomposition of the ester bond of methacryloyl groups.

Data set [2] can be described thus: Solubility test (2 ml solvent added to 2 mg derivative). In kind it is physicochemical. As for the experimental part: A solubility test was carried out by adding 2 ml of each of the solvents shown in Table 4 to 2 mg of each of the derivatives listed in Table 4.

For `C=C(C)C(=O)Oc1cc(OC(=O)C(=C)C)c2cc1C1CCCC3c4cc(c(OC(=O)C(=C)C)cc4OC(=O)C(=C)C)C4CCCC5c6cc(c(OC(=O)C(=C)C)cc6OC(=O)C(=C)C)C(CCCC6c7cc(c(OC(=O)C(=C)C)cc7OC(=O)C(=C)C)C(CCCC7c8cc(c(OC(=O)C(=C)C)cc8OC(=O)C(=C)C)C(CCCC(c8cc(c(OC(=O)C(=C)C)cc8OC(=O)C(=C)C)C(CCCC2c2cc4c(OC(=O)C(=C)C)cc2OC(=O)C(=C)C)c2cc7c(OC(=O)C(=C)C)cc2OC(=O)C(=C)C)c2cc1c(OC(=O)C(=C)C)cc2OC(=O)C(=C)C)c1cc6c(OC(=O)C(=C)C)cc1OC(=O)C(=C)C)c1cc5c(OC(=O)C(=C)C)cc1OC(=O)C(=C)C)c1cc3c(OC(=O)C(=C)C)cc1OC(=O)C(=C)C` [T3-1], in data set [1], the “First decomposition temperature: 5% mass decomposition temperature” value worked out at 418 °C and the “First decomposition temperature: Decomposition initiation temperature” value stood at 387 °C.

In the case of `C=COCCOc1cc(OCCOC=C)c2cc1C1CCCC3c4cc(c(OCCOC=C)cc4OCCOC=C)C4CCCC5c6cc(c(OCCOC=C)cc6OCCOC=C)C(CCCC6c7cc(c(OCCOC=C)cc7OCCOC=C)C(CCCC7c8cc(c(OCCOC=C)cc8OCCOC=C)C(CCCC(c8cc(c(OCCOC=C)cc8OCCOC=C)C(CCCC2c2cc4c(OCCOC=C)cc2OCCOC=C)c2cc7c(OCCOC=C)cc2OCCOC=C)c2cc1c(OCCOC=C)cc2OCCOC=C)c1cc6c(OCCOC=C)cc1OCCOC=C)c1cc5c(OCCOC=C)cc1OCCOC=C)c1cc3c(OCCOC=C)cc1OCCOC=C` [T3-6], in data set [1], the “First decomposition temperature: 5% mass decomposition temperature” value turned out to be 365 °C and the “First decomposition temperature: Decomposition initiation temperature” value was determined as 336 °C.

As for `OCCOc1cc(OCCO)c2cc1C1CCCC3c4cc(c(OCCO)cc4OCCO)C4CCCC5c6cc(c(OCCO)cc6OCCO)C(CCCC6c7cc(c(OCCO)cc7OCCO)C(CCCC7c8cc(c(OCCO)cc8OCCO)C(CCCC(c8cc(c(OCCO)cc8OCCO)C(CCCC2c2cc4c(OCCO)cc2OCCO)c2cc7c(OCCO)cc2OCCO)c2cc1c(OCCO)cc2OCCO)c1cc6c(OCCO)cc1OCCO)c1cc5c(OCCO)cc1OCCO)c1cc3c(OCCO)cc1OCCO` [T3-7], in data set [1], the “First decomposition temperature: 5% mass decomposition temperature” value is 348 °C and the “First decomposition temperature: Decomposition initiation temperature” value came out at 375 °C.

Turning to `Oc1cc(O)c2cc1C1CCCC3c4cc(c(O)cc4O)C4CCCC5c6cc(c(O)cc6O)C(CCCC6c7cc(c(O)cc7O)C(CCCC7c8cc(c(O)cc8O)C(CCCC(c8cc(c(O)cc8O)C(CCCC2c2cc4c(O)cc2O)c2cc7c(O)cc2O)c2cc1c(O)cc2O)c1cc6c(O)cc1O)c1cc5c(O)cc1O)c1cc3c(O)cc1O` [T3], in data set [1], the “First decomposition temperature: 5% mass decomposition temperature” value came to 365 °C and the “First decomposition temperature: Decomposition initiation temperature” value was 333 °C.

Take `CC1=C2OCOc3c4cc5c(c3C)OCOc3c6cc7c(c3C)OCOc3c8cc9c(c3C)OCOc3c%10cc%11c(c3C)OCOc3c%12cc%13c(c3C)OCOc3c(cc%14c(c3C)OCOc3c%15cc%16c(c3C)OCOc3c(cc%17c(c3C)OCOc3c%18cc%19c(c3C)OCOc3c(cc%20c(c3C)OCOc3c(cc%21c(c3C)OCOC1=C(C=C2C4CCCC9%10)C%21CCCC%18%17)C%20CCCC56)C%19CCCC%15%14)C%16CCCC%11%12)C%13CCCC78` (stereo not drawn) [formula (33)]: the “Solubility in acetone and methylene chloride” value in data set [2] is “dissolved in acetone and methylene chloride”.
